“Also recorded” adds a separate entry of the source.
Key:
ERBB2 = assay: Western blot of ERBB2 expression in Huh7 cells; format: cell-based
Protocol: (§1) The Huh7 cells and tumor tissues were lysed on ice using the lysis buffer. Protein concentration was quantified using Bradford assay (Bio-Rad, Hercules, CA, USA). Equivalent amounts of protein (25-50 μg) were loaded onto 10% sodium dodecyl sulfate-polyacrylamide gel electrophoresis (SDS-PAGE) and transferred to polyvinylidene fluoride (PVDF) membranes. Membranes were blocked with 5% non-fat milk in Tris-buffered saline Tween 20 (TBST) for an hour. The blots were incubated with primary antibodies (EGFR (4267S, Cell signaling technology, MA, USA), c-Myc (5605S, Cell signaling technology, MA, USA), Bax (2772S, Cell signaling technology, MA, USA), Bcl-2 (sc-7382, Santa Cruze, TX, USA), ERBB2 (2165S, Cell signaling technology, MA, USA), and α-tubulin (62204, Invitrogen, MA, USA), 1:1000) at 4° C. overnight. Subsequently, the membranes were washed thrice (15 min each) with TBST solution and incubated for 1 h with secondary horseradish peroxidase-conjugated antibodies (NA934 and NA931, Cytiva, MA, USA, 1:5000). Blots were then detected using an ECL kit and photographed using a ChemiDoc Imaging System (Bio-Rad, MA, USA). The bands were quantified using the ImageJ software (NIH, USA). The intensities of the bands for each protein sample were normalized to those of α-tubulin (internal standard protein). Quantitative data are presented as a fold change of untreated control.

HCC PDTX mouse model = assay: HCC patient-derived tumor xenograft (PDTX #1) mouse model; format: in vivo, mice; details: for body weight / tumor cellularity (H&E staining) / gross anatomical examination of vital organs / histopathology of vital organs (H&E): ZAK-I-57 15 and 30 mg/kg, sorafenib 30 mg/kg; for gross anatomical examination of vital organs / histopathology of vital organs (H&E): heart, liver, spleen, lung, kidney
Protocol: (§2) Male BALB/c nude mice (6-8 weeks old) were obtained from the Centralized Animal Facilities at the Hong Kong Polytechnic University. All animals were bred and housed under specific pathogen-free conditions, with access to sterile food and water. Environmental conditions were strictly controlled, with temperature maintained at 23±2° C., relative humidity between 30%-70%, and a 12-hour light/dark cycle. Mice were group-housed in accordance with institutional guidelines for recommended stocking density. The animal experiments were conducted according to institutional guidelines, and the experimental procedures were approved by the PolyU Animal Experimentation Ethics Committee (Ref. No. 19-20/57-ABCT-R-STUDENT).
The procedure for the establishment of PDTX #1 was previously described. Tumor cells from PDTX #1 was inoculated subcutaneously on the back of nude mice. When the tumors reached approximately 1,000 mm^3, mice with the first generation of xenografts (P1) were sacrificed, and the xenografts were isolated and expanded for the second generation (P2). When P2 xenografts reached an average volume of 70 mm^3, mice were subjected to ZAK-I-57 and sorafenib treatment. The development of PDTX was approved by the Institutional Review Board of the University of Hong Kong/Hospital Authority Hong Kong West Cluster (UW 17-056) and informed consents were obtained from patients.
as §1
(§3) Tumors were fixed in 4% formalin, embedded in paraffin, and sectioned at […] thickness for IHC staining. Ki-67 primary antibody (ab16667, Abcam, MA, USA) and anti-mouse IgG recombinant secondary antibody (7056S, Cell Signaling Technology, MA, USA) were used for IHC staining. Hemotoxin (Invitrogen, MA, USA) was used to stain nuclei. The number of positively stained cells in Ki-67-stained slides was evaluated using ImageJ software (NIH, MD, USA).
(§4) H&E staining was performed on histological sections of organs (heart, spleen, kidney, liver, and lung) to examine the toxicity of ZAK-I-57 in PLC/PRF/5 tumor-bearing and PDTX model mice. Briefly, the histological slides were deparaffinized using 100% xylene (v/v). The slides were then washed several times with ethanol solutions of various concentrations (70-100%, v/v) and immersed in hematoxylin for 5 min, followed by a quick dip in acidic alcohol. Next, the slides were immersed in Scott's tap water for 3 min and in 1% eosin for 30 s. Finally, the slides were dehydrated using ethanol solutions of various concentrations (70%-100%, v/v) and 100% xylene (v/v) and mounted using a mounting medium.

Huh7 cells = assay: MTT cytotoxicity assay, Huh7; format: cell-based; details: for cytotoxicity (cell viability): Huh7, ZAK-I-57 24 h, ZAK-I-64 and ZAK-I-68 48 h
Protocol: (§5) Huh7 and PLC/PRF/5 (CRL-8024™) cells were purchased from Thermo Fisher Scientific and the ATCC, respectively. MIHA was kindly provided by Dr. J. R. Chowdhury, Albert Einstein College of Medicine, New York. The cell lines were cultured in Dulbecco's modified Eagle medium (DMEM, Gibco, MA, USA) supplemented with 10% fetal bovine serum (FBS, BI, MA, USA) and 1× penicillin-streptomycin solution (Solarbio) at 37° C. in a humid, 5% CO2 atmosphere.
(§6) Huh7 and PLC/PRF/5 cells at a density of 5×10^3 cells/well were cultured in 96-well plates and incubated at 37° C. in 5% CO2. Both cell lines were treated with different concentrations of benzoxazinone derivatives (ZAK-I-57, ZAK-I-64, and ZAK-I-68). Both cell lines were incubated with ZAK-I-57 for 24 h and for 48 h with ZAK-I-64 and ZAK-I-68. MTT (3-[4,5-dimethylthiazol-2-yl]-2,5-diphenyltetrazolium bromide) solution was then added to each well and incubated for 3 h in a CO2 atmosphere at 37° C. Insoluble formazan crystals were dissolved by adding 100 μL of dimethyl sulfoxide (DMSO) to each well, followed by orbital agitation for 10 min. A minimum of three biological replicates were analyzed using a plate reader to determine IC50. The same experiment was performed with MIHA hepatocyte cells to evaluate the selectivity cytotoxicity of ZAK-I-57.

PLC/PRF/5 cells = assay: MTT cytotoxicity assay, PLC/PRF/5; format: cell-based; details: for cytotoxicity (cell viability): PLC/PRF/5, ZAK-I-57 24 h, ZAK-I-64 and ZAK-I-68 48 h
Protocol: as §5, §6

[1] = test system: PLC/PRF/5 tumor-bearing mice; assay: PLC/PRF/5 tumor-bearing mouse model; format: in vivo; details: for tumor cellularity (H&E staining) / gross anatomical examination of vital organs / histopathology of vital organs (H&E) / body weight: sorafenib 30 mg/kg; for tumor cellularity (H&E staining): vs vehicle control; for gross anatomical examination of vital organs / histopathology of vital organs (H&E): heart, liver, spleen, lung, kidney; for body weight: oral gavage daily, 20 days
Protocol: as §2
PLC/PRF/5 cells (5×10^5) were suspended in 100 μL PBS with Matrigel (1:1 ratio) and injected into the right back of nude mice. Small tumors (<70 mm^3) were formed two weeks after cell inoculation. Mice were then randomized into the vehicle control group, ZAK-I-57 treated groups (15 mg/kg and 30 mg/kg), or sorafenib (30 mg/kg) groups. Mice were administered 200 μL of vehicle water and drugs by oral gavage daily for three weeks. Tumor size was measured twice a week, and tumor volumes were calculated using the formula [(length×width×depth)/2 mm^3] while each mouse was weighed. At the end of the experiment, the mice were sacrificed, and the tumors and organs were collected for further experiments.
as §1, §3, §4

[2] = MTT cytotoxicity assay, MIHA normal hepatocytes; format: cell-based; details: human, MIHA normal hepatocyte cells, all concentrations, read-out: cell viability
Protocol: as §5, §6

MIHA cells = assay: MTT cytotoxicity assay, MIHA normal hepatocytes; format: cell-based; details: Hepatocyte
Protocol: as §5, §6

EGFR = assay: Western blot of EGFR expression in Huh7 cells; format: cell-based
Protocol: as §1

c-Myc = assay: Western blot of c-Myc expression in Huh7 cells; format: cell-based
Protocol: as §1

[3] = ZAK-I-57 15 and 30 mg/kg, vs vehicle control and sorafenib 30 mg/kg

O=c1oc(-c2ccc3ccccc3c2)nc2cc([N+](=O)[O-])ccc12 [ZAK-I-57, 2-(naphthalen-2-yl)-7-nitro-4H-3,1-benzoxazin-4-one]
ERBB2 expression (ERBB2; Huh7, 48 h treatment): significant downregulation | percentage of tumor growth (HCC PDTX mouse model; 15 mg/kg and 30 mg/kg, vs vehicle control): markedly diminished | Bax expression in tumor (western blot) (HCC PDTX mouse model; 30 mg/kg): significantly upregulating | Bcl-2 expression in tumor (western blot) (HCC PDTX mouse model; 30 mg/kg): downregulating | EGFR expression in tumor (western blot) (HCC PDTX mouse model; 30 mg/kg): downregulated | Ki-67 suppression compared with sorafenib (HCC PDTX mouse model; 30 mg/kg): significantly greater Ki-67 suppression than sorafenib | c-Myc expression in tumor (western blot) (HCC PDTX mouse model; 30 mg/kg): downregulated | tumor cell density and necrosis (H&E staining) (HCC PDTX mouse model; 30 mg/kg): substantial decrease in cell density and necrosis | tumor volume reduction compared with sorafenib (HCC PDTX mouse model; 30 mg/kg): outperforming sorafenib | tumor weight (HCC PDTX mouse model; 30 mg/kg): significant reduction; also recorded: outperforming sorafenib | Ki-67 expression in tumor (IHC) (HCC PDTX mouse model; 15 and 30 mg/kg): inhibition of Ki-67 expression | tumor progression (tumor volume) (HCC PDTX mouse model; 15 and 30 mg/kg): significantly inhibited tumor progression in a dose-dependent manner | body weight (HCC PDTX mouse model): no significant difference | tumor cellularity (H&E staining) (HCC PDTX mouse model; vs vehicle control): marked reduction in tumor cellularity | gross anatomical examination of vital organs (HCC PDTX mouse model): maintained tissue morphology comparable to the vehicle control | histopathology of vital organs (H&E) (HCC PDTX mouse model): no histological abnormalities were observed | IC50 against HCC cells, compared with sorafenib and artesunate (Huh7 cells; HCC cells (Huh7)): lower than sorafenib and artesunate | cytotoxicity (cell viability) (Huh7 cells): concentration-dependent increase in cytotoxicity | IC50 against HCC cells, compared with sorafenib and artesunate (PLC/PRF/5 cells; HCC cells (PLC/PRF/5)): lower than sorafenib and artesunate | cytotoxicity (cell viability) (PLC/PRF/5 cells): concentration-dependent increase in cytotoxicity | Ki-67 suppression compared with sorafenib ([1]; 30 mg/kg): significantly greater Ki-67 suppression than sorafenib | tumor cell density and necrosis (H&E staining) ([1]; 30 mg/kg): substantial decrease in cell density and necrosis | tumor volume reduction compared with sorafenib ([1]; 30 mg/kg): outperforming sorafenib | tumor weight reduction compared with sorafenib ([1]; 30 mg/kg): outperforming sorafenib | Bax expression in tumor (western blot) ([1]; 30 mg/kg, vs control): increase in the expression | Bcl-2 expression in tumor (western blot) ([1]; 30 mg/kg, vs control): significantly attenuated | EGFR expression in tumor (western blot) ([1]; 30 mg/kg, vs control): significantly attenuated | c-Myc expression in tumor (western blot) ([1]; 30 mg/kg, vs control): significantly attenuated | Ki-67 expression in tumor (IHC) ([1]; 15 and 30 mg/kg): inhibition of Ki-67 expression | tumor growth inhibition ([1]; 15 and 30 mg/kg): significantly inhibited tumor growth | tumor cellularity (H&E staining) ([1]; ZAK-I-57 15 and 30 mg/kg): marked reduction in tumor cellularity | tumor volume [1, 3]: marked reduction | tumor weight [1, 3]: marked reduction | gross anatomical examination of vital organs ([1]; ZAK-I-57 15 and 30 mg/kg): maintained tissue morphology comparable to the vehicle control | histopathology of vital organs (H&E) ([1]; ZAK-I-57 15 and 30 mg/kg): no histological abnormalities were observed | body weight ([1]; ZAK-I-57 15 and 30 mg/kg): no significant changes | viability at 24 h ([2]; 24 h): > 90% | viability at 48 h ([2]; 48 h): > 90% | IC50 (MIHA cells; 24 h): > 100 µM | IC50 (MIHA cells; 48 h): > 100 µM | IC50 (MIHA cells; time not stated): > 100 µM | EGFR expression (EGFR; Huh7, 48 h treatment): significant downregulation | c-Myc expression (c-Myc; Huh7, 48 h treatment): significant downregulation

Cc1ccccc1-c1nc2cc([N+](=O)[O-])ccc2c(=O)o1 [ZAK-I-64, 2-(2-methylphenyl)-7-nitro-4H-3,1-benzoxazin-4-one]
ERBB2 expression (ERBB2; Huh7, 48 h treatment): no appreciable effect | ERBB2 expression (ERBB2; Huh7, 72 h treatment): significant downregulation | cytotoxicity (cell viability) (Huh7 cells): concentration-dependent increase in cytotoxicity | cytotoxicity (cell viability) (PLC/PRF/5 cells): concentration-dependent increase in cytotoxicity | EGFR expression (EGFR; Huh7, 48 h treatment): no appreciable effect | EGFR expression (EGFR; Huh7, 72 h treatment): significant downregulation | c-Myc expression (c-Myc; Huh7, 48 h treatment): no appreciable effect | c-Myc expression (c-Myc; Huh7, 72 h treatment): significant downregulation

O=c1oc(-c2ccc(O)cc2)nc2cc([N+](=O)[O-])ccc12 [ZAK-I-68, 2-(4-hydroxyphenyl)-7-nitro-4H-3,1-benzoxazin-4-one]
ERBB2 expression (ERBB2; Huh7, 48 h treatment): no appreciable effect | ERBB2 expression (ERBB2; Huh7, 72 h treatment): significant downregulation | cytotoxicity (cell viability) (Huh7 cells): concentration-dependent increase in cytotoxicity | cytotoxicity (cell viability) (PLC/PRF/5 cells): concentration-dependent increase in cytotoxicity | EGFR expression (EGFR; Huh7, 48 h treatment): no appreciable effect | EGFR expression (EGFR; Huh7, 72 h treatment): significant downregulation | c-Myc expression (c-Myc; Huh7, 48 h treatment): no appreciable effect | c-Myc expression (c-Myc; Huh7, 72 h treatment): significant downregulation

CNC(=O)c1cc(Oc2ccc(NC(=O)Nc3ccc(Cl)c(C(F)(F)F)c3)cc2)ccn1 [sorafenib, reference compound]
body weight (HCC PDTX mouse model): Slight variations | tumor cellularity (H&E staining) (HCC PDTX mouse model; vs vehicle control): marked reduction in tumor cellularity | gross anatomical examination of vital organs (HCC PDTX mouse model): maintained tissue morphology comparable to the vehicle control | histopathology of vital organs (H&E) (HCC PDTX mouse model): absence of significant pathological changes | tumor cellularity (H&E staining) ([1]; ZAK-I-57 15 and 30 mg/kg): marked reduction in tumor cellularity | gross anatomical examination of vital organs ([1]; ZAK-I-57 15 and 30 mg/kg): maintained tissue morphology comparable to the vehicle control | histopathology of vital organs (H&E) ([1]; ZAK-I-57 15 and 30 mg/kg): absence of significant pathological changes | body weight ([1]; ZAK-I-57 15 and 30 mg/kg): only slight variation

From patent US20250375454A1, “METHODS FOR TREATING HEPATOCELLULAR CARCINOMA” (THE HONG KONG POLYTECHNIC UNIVERSITY, priority 2024, published 2025)
